Laboratory results published in the supplement of paper PMC10307832.

Columns and labels:
Experiment in all cases: relative viability (nuclei count vs DMSO), 5 days (fraction); higher = more cells survive
HARA = test system: HARA
In short: (§1)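 Values are medians from duplicate plates. Each reflects relative viability, defined as the nuclei count of treated wells over that of vehicle wells. Lung cancer cell lines in 1536-well plates were pin-tool dosed one day after seeding with one drug alone or with a fixed anchor-drug dose plus five library-drug doses (not always all listed) in √10 steps, then fixed, stained and imaged at 4× after 5 days.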

NCI-H1915 = test system: NCI-H1915
In short: as §1

NCI-H1395 = test system: NCI-H1395
In short: as §1

EMC-BAC-2 = test system: EMC-BAC-2
In short: as §1

NCI-H1437 = test system: NCI-H1437
In short: as §1

NCI-H460 = test system: NCI-H460
In short: as §1

NCI-H522 = test system: NCI-H522
In short: as §1

LCLC-103H = test system: LCLC-103H
In short: as §1

CAL-12T = test system: CAL-12T
In short: as §1

NCI-H727 = test system: NCI-H727
In short: as §1

NCI-H23 = test system: NCI-H23
In short: as §1

SW 1573 = test system: SW 1573
In short: as §1

COR-L 105 = test system: COR-L 105
In short: as §1

A-427 = test system: A-427
In short: as §1

NCI-H2228 = test system: NCI-H2228
In short: as §1

NCI-H2009 = test system: NCI-H2009
In short: as §1

HCC-366 = test system: HCC-366
In short: as §1

HCC-827 = test system: HCC-827
In short: as §1

HOP-62 = test system: HOP-62
In short: as §1

NCI-H1755 = test system: NCI-H1755
In short: as §1

SK-LU-1 = test system: SK-LU-1
In short: as §1

Work on `COc1cc2nccc(Oc3ccc(NC(=O)Nc4cc(C)on4)c(Cl)c3)c2cc1OC` [Tivozanib] + Cc1cc(Nc2cc(N3CCN(C)CC3)nc(Sc3ccc(NC(=O)C4CC4)cc3)n2)n[nH]1 [Tozasertib] (partner 0.1 µM) yielded a relative viability (HARA; first compound 0.005 µM) of 0.113, a relative viability (HARA; first compound 0.01581 µM) of 0.107 and a relative viability (HARA; first compound 0.05 µM) of 0.112. The relative viability (HARA; first compound 0.1581 µM) was 0.133, the relative viability (HARA; first compound 0.5 µM) was 0.145 and the relative viability (NCI-H1915; first compound 0.005 µM) was 0.4. The relative viability (NCI-H1915; first compound 0.01581 µM) was 0.439, the relative viability (NCI-H1915; first compound 0.05 µM) was 0.413 and the relative viability (NCI-H1915; first compound 0.1581 µM) was 0.511. For the same molecule, the relative viability (NCI-H1915; first compound 0.5 µM) was 0.5, the relative viability (NCI-H1395; first compound 0.005 µM) was 0.734 and the relative viability (NCI-H1395; first compound 0.01581 µM) was 0.738. For the same molecule, the relative viability (NCI-H1395; first compound 0.05 µM) was 0.81, the relative viability (NCI-H1395; first compound 0.1581 µM) was 0.681 and the relative viability (NCI-H1395; first compound 0.5 µM) was 0.807. For the same molecule, the relative viability (EMC-BAC-2; first compound 0.005 µM) was 0.255, the relative viability (EMC-BAC-2; first compound 0.01581 µM) was 0.3 and the relative viability (EMC-BAC-2; first compound 0.05 µM) was 0.295. It also gave a relative viability (EMC-BAC-2; first compound 0.1581 µM) of 0.326, a relative viability (EMC-BAC-2; first compound 0.5 µM) of 0.266 and a relative viability (NCI-H1437; first compound 0.005 µM) of 0.405. It also gave a relative viability (NCI-H1437; first compound 0.01581 µM) of 0.343, a relative viability (NCI-H1437; first compound 0.05 µM) of 0.53 and a relative viability (NCI-H1437; first compound 0.1581 µM) of 0.44. For the same molecule, the relative viability (NCI-H1437; first compound 0.5 µM) was 0.436, the relative viability (NCI-H460; first compound 0.005 µM) was 0.394 and the relative viability (NCI-H460; first compound 0.01581 µM) was 0.394. The relative viability (NCI-H460; first compound 0.05 µM) was 0.536, the relative viability (NCI-H460; first compound 0.1581 µM) was 0.554 and the relative viability (NCI-H460; first compound 0.5 µM) was 0.446. The relative viability (NCI-H522; first compound 0.005 µM) was 0.581, the relative viability (NCI-H522; first compound 0.01581 µM) was 0.553 and the relative viability (NCI-H522; first compound 0.05 µM) was 0.581. For the same molecule, the relative viability (NCI-H522; first compound 0.1581 µM) was 0.536, the relative viability (NCI-H522; first compound 0.5 µM) was 0.577 and the relative viability (LCLC-103H; first compound 0.005 µM) was 0.525. The relative viability (LCLC-103H; first compound 0.01581 µM) was 0.503, the relative viability (LCLC-103H; first compound 0.05 µM) was 0.449 and the relative viability (LCLC-103H; first compound 0.1581 µM) was 0.51. It also gave a relative viability (LCLC-103H; first compound 0.5 µM) of 0.549, a relative viability (CAL-12T; first compound 0.005 µM) of 0.281 and a relative viability (CAL-12T; first compound 0.01581 µM) of 0.314. For the same molecule, the relative viability (CAL-12T; first compound 0.05 µM) was 0.373, the relative viability (CAL-12T; first compound 0.1581 µM) was 0.277 and the relative viability (CAL-12T; first compound 0.5 µM) was 0.299. It also gave a relative viability (NCI-H727; first compound 0.005 µM) of 0.533, a relative viability (NCI-H727; first compound 0.01581 µM) of 0.649 and a relative viability (NCI-H727; first compound 0.05 µM) of 0.588. It also gave a relative viability (NCI-H727; first compound 0.1581 µM) of 0.635, a relative viability (NCI-H727; first compound 0.5 µM) of 0.886 and a relative viability (NCI-H23; first compound 0.005 µM) of 0.324. It also gave a relative viability (NCI-H23; first compound 0.01581 µM) of 0.323, a relative viability (NCI-H23; first compound 0.05 µM) of 0.547 and a relative viability (NCI-H23; first compound 0.1581 µM) of 0.406. It also gave a relative viability (NCI-H23; first compound 0.5 µM) of 0.427, a relative viability (SW 1573; first compound 0.005 µM) of 0.165 and a relative viability (SW 1573; first compound 0.01581 µM) of 0.17. It also gave a relative viability (SW 1573; first compound 0.05 µM) of 0.198, a relative viability (SW 1573; first compound 0.1581 µM) of 0.205 and a relative viability (SW 1573; first compound 0.5 µM) of 0.38. It also gave a relative viability (COR-L 105; first compound 0.005 µM) of 0.366, a relative viability (COR-L 105; first compound 0.01581 µM) of 0.371 and a relative viability (COR-L 105; first compound 0.05 µM) of 0.406. It also gave a relative viability (COR-L 105; first compound 0.1581 µM) of 0.374, a relative viability (COR-L 105; first compound 0.5 µM) of 0.493 and a relative viability (A-427; first compound 0.005 µM) of 0.179. It also gave a relative viability (A-427; first compound 0.01581 µM) of 0.23, a relative viability (A-427; first compound 0.05 µM) of 0.251 and a relative viability (A-427; first compound 0.1581 µM) of 0.281. The relative viability (A-427; first compound 0.5 µM) was 0.207, the relative viability (NCI-H2228; first compound 0.005 µM) was 0.232 and the relative viability (NCI-H2228; first compound 0.01581 µM) was 0.235. The relative viability (NCI-H2228; first compound 0.05 µM) was 0.25, the relative viability (NCI-H2228; first compound 0.1581 µM) was 0.26 and the relative viability (NCI-H2228; first compound 0.5 µM) was 0.274. For the same molecule, the relative viability (NCI-H2009; first compound 0.005 µM) was 0.708, the relative viability (NCI-H2009; first compound 0.01581 µM) was 0.738 and the relative viability (NCI-H2009; first compound 0.05 µM) was 0.733. The relative viability (NCI-H2009; first compound 0.1581 µM) was 0.725, the relative viability (NCI-H2009; first compound 0.5 µM) was 0.759 and the relative viability (HCC-366; first compound 0.005 µM) was 0.094. It also gave a relative viability (HCC-366; first compound 0.01581 µM) of 0.115, a relative viability (HCC-366; first compound 0.05 µM) of 0.156 and a relative viability (HCC-366; first compound 0.1581 µM) of 0.137. It also gave a relative viability (HCC-366; first compound 0.5 µM) of 0.111, a relative viability (HCC-827; first compound 0.005 µM) of 0.429 and a relative viability (HCC-827; first compound 0.01581 µM) of 0.421. It also gave a relative viability (HCC-827; first compound 0.05 µM) of 0.417, a relative viability (HCC-827; first compound 0.1581 µM) of 0.408 and a relative viability (HCC-827; first compound 0.5 µM) of 0.455. It also gave a relative viability (HOP-62; first compound 0.005 µM) of 0.349, a relative viability (HOP-62; first compound 0.01581 µM) of 0.384 and a relative viability (HOP-62; first compound 0.05 µM) of 0.422. The relative viability (HOP-62; first compound 0.1581 µM) was 0.391, the relative viability (HOP-62; first compound 0.5 µM) was 0.362 and the relative viability (NCI-H1755; first compound 0.005 µM) was 0.565. For the same molecule, the relative viability (NCI-H1755; first compound 0.01581 µM) was 0.581, the relative viability (NCI-H1755; first compound 0.05 µM) was 0.588 and the relative viability (NCI-H1755; first compound 0.1581 µM) was 0.666. It also gave a relative viability (NCI-H1755; first compound 0.5 µM) of 0.531, a relative viability (SK-LU-1; first compound 0.005 µM) of 0.332 and a relative viability (SK-LU-1; first compound 0.01581 µM) of 0.366. For the same molecule, the relative viability (SK-LU-1; first compound 0.05 µM) was 0.472, the relative viability (SK-LU-1; first compound 0.1581 µM) was 0.357 and the relative viability (SK-LU-1; first compound 0.5 µM) was 0.335.
